Converted amounts (≈) assume the structure as drawn. Where two headings read alike, the source gives them in different places.
Assays:
[1] = tested on: BXPC-3; assay: Cytotoxicity, pancreas-a BXPC-3; format: cell-based, human; details: for GI50: Homo sapiens, BXPC-3, BXPC-3
[2] = tested on: MCF-7; assay: Cytotoxicity, breast MCF-7; format: cell-based, human; details: for GI50: Homo sapiens, MCF7
[3] = tested on: SF-268; assay: Cytotoxicity, CNS SF-268; format: cell-based, human; details: for GI50: Homo sapiens, SF-268, SF-268, read-out: CNS SF-268 GI50
[4] = tested on: NCI-H460; assay: Cytotoxicity, lung-NSC NCI-H460; format: cell-based, human; details: for GI50: Homo sapiens, NCI-H460, NCI-H460, read-out: Lung-NSC NCI-H460 GI50
[5] = tested on: KM201.2; assay: Cytotoxicity, colon KM201.2; format: cell-based, human; details: KM201.2; for GI50: Homo sapiens, read-out: Colon KM201.2 GI50
[6] = tested on: DU-145; assay: Cytotoxicity, prostate DU-145; format: cell-based, human; details: for GI50: Homo sapiens, DU-145, DU-145
[7] = tested on: Candida albicans; assay: Antimicrobial broth microdilution, MIC; format: cell-based; details: for MIC: read-out: Minimum inhibitory concentration
Description: (§1) Stilbene production has been correlated with the resistance of grape leaves to fungal infection.

[8] = tested on: Cryptococcus neoformans; assay: Antimicrobial broth microdilution, MIC; format: cell-based; details: for MIC: read-out: Minimum inhibitory concentration
Description: as §1

[9] = tested on: Enterobacter cloacae; assay: Antimicrobial broth microdilution, MIC; format: cell-based; details: for MIC: read-out: Minimum inhibitory concentration
Description: as §1

[10] = tested on: Enterococcus faecalis; assay: Antimicrobial broth microdilution, MIC; format: cell-based; details: for MIC: read-out: Minimum inhibitory concentration
Description: as §1

[11] = tested on: Escherichla coli; assay: Antimicrobial broth microdilution, MIC; format: cell-based; details: Escherichla coli; for MIC: read-out: Minimum inhibitory concentration
Description: as §1

[12] = tested on: Micrococcus luteus; assay: Antimicrobial broth microdilution, MIC; format: cell-based; details: for MIC: read-out: Minimum inhibitory concentration
Description: as §1

[13] = tested on: Neisseria gonorrhoeae; assay: Antimicrobial broth microdilution, MIC; format: cell-based; details: Neisseria gonorrhoeae; for MIC: read-out: Minimum inhibitory concentration
Description: as §1

[14] = tested on: Staphylococcus aureus; assay: Antimicrobial broth microdilution, MIC; format: cell-based; details: for MIC: read-out: Minimum inhibitory concentration
Description: as §1

[15] = tested on: Stenotrophomonas maltophilia; assay: Antimicrobial broth microdilution, MIC; format: cell-based; details: for MIC: read-out: Minimum inhibitory concentration
Description: as §1

[16] = tested on: Streptococcus pneumoniae; assay: Antimicrobial broth microdilution, MIC; format: cell-based; details: for MIC: read-out: Minimum inhibitory concentration
Description: as §1

[17] = tested on: P-388 and human tumor cell lines; assay: Cytotoxicity, summary over P-388 and human tumor cell lines; format: cell-based

Molecule | Pancreas-a BXPC-3 GI50 [1] | Breast MCF-7 GI50 [2] | CNS SF-268 GI50 [3] | GI50 [1] | GI50 [2] | GI50 [3] | GI50 [4] | GI50 [5] | GI50 [6] | MIC [7] | MIC [8] | MIC [9] | MIC ([10]; first line (r12)) | MIC ([10]; second line (r15)) | MIC [11] | MIC [12] | MIC [13] | MIC [14] | MIC [15] | MIC [16] | further results
COc1cc(/C=C\c2ccccc2)cc(OC)c1OP(=O)(OCc1ccccc1)OCc1ccccc1 [Compound 14m, (Z)-3,5-dimethoxy-4-[O-bis(benzyl)phosphoryl]-stilbene] | 5.4 µg/mL | 9.0 µg/mL | 38.5 µg/mL | – | – | – | – | – | – | – | – | – | – | – | – | – | – | – | – | – | Lung-NSC NCI-H460 GI50 [4]: 10.7 µg/mL; Colon KM201.2 GI50 [5]: 24.7 µg/mL; Prostate DU-145 GI50 [6]: 35.6 µg/mL
COc1ccc(C(O)c2cc(OC)cc(OC)c2)cc1 (stereo not shown) [Compound 15a] | 16.1 µg/mL | – | 23.3 µg/mL | – | – | – | – | – | – | – | – | – | – | – | – | – | – | – | – | – | Lung-NSC NCI-H460 GI50 [4]: 21.7 µg/mL; Colon KM201.2 GI50 [5]: 21.0 µg/mL; Prostate DU-145 GI50 [6]: 23.2 µg/mL
COc1cc(OC)cc(C(O)c2ccc(O)cc2)c1 (stereo not shown) [Compound 15c, 4′-Hydroxy-3,5-dimethoxybenzhydrol] | – | – | – | 1.3 µg/mL (≈ 4.99 µM) | 2 µg/mL (≈ 7.68 µM) | 0.65 µg/mL (≈ 2.5 µM) | 2.3 µg/mL (≈ 8.84 µM) | 5.3 µg/mL (≈ 20.4 µM) | 5.8 µg/mL (≈ 22.3 µM) | > 64 µg/mL | > 64 µg/mL | > 64 µg/mL | > 64 µg/mL | > 64 µg/mL | > 64 µg/mL | > 64 µg/mL | 2 to 4 µg/mL (≈ 7.68 to 15.4 µM) | > 64 µg/mL | > 64 µg/mL | 16 µg/mL (≈ 61.5 µM) | –
COc1cc(OC)cc(C(=O)c2ccc(O)cc2)c1 [Compound 16c] | 4.0 µg/mL | 2.2 µg/mL | 3.8 µg/mL | – | – | – | – | – | – | – | – | – | – | – | – | – | – | – | – | – | Lung-NSC NCI-H460 GI50 [4]: 3.0 µg/mL; Colon KM201.2 GI50 [5]: 3.6 µg/mL; Prostate DU-145 GI50 [6]: 4.1 µg/mL; Minimum inhibitory concentration [7]: * (no inhibition at 64 μg/ml); Minimum inhibitory concentration [8]: * (no inhibition at 64 μg/ml); Minimum inhibitory concentration [9]: * (no inhibition at 64 μg/ml); Minimum inhibitory concentration ([10]; first line (r12)): * (no inhibition at 64 μg/ml); Minimum inhibitory concentration ([10]; second line (r15)): * (no inhibition at 64 μg/ml); Minimum inhibitory concentration [11]: * (no inhibition at 64 μg/ml); Minimum inhibitory concentration [12]: * (no inhibition at 64 μg/ml); Minimum inhibitory concentration [13]: 32 to 64 µg/mL; Minimum inhibitory concentration [14]: * (no inhibition at 64 μg/ml); Minimum inhibitory concentration [15]: * (no inhibition at 64 μg/ml); Minimum inhibitory concentration [16]: 64 µg/mL (≈ 248 µM)
COc1ccc(C(=O)c2cc(O)cc(O)c2)cc1 [Compound 16e] | – | – | – | – | – | – | – | – | – | – | – | – | – | – | – | – | – | – | – | – | Minimum inhibitory concentration [7]: * (no inhibition at 64 μg/ml); Minimum inhibitory concentration [8]: * (no inhibition at 64 μg/ml); Minimum inhibitory concentration [9]: * (no inhibition at 64 μg/ml); Minimum inhibitory concentration ([10]; first line (r12)): * (no inhibition at 64 μg/ml); Minimum inhibitory concentration ([10]; second line (r15)): * (no inhibition at 64 μg/ml); Minimum inhibitory concentration [11]: * (no inhibition at 64 μg/ml); Minimum inhibitory concentration [12]: * (no inhibition at 64 μg/ml); Minimum inhibitory concentration [13]: * (no inhibition at 64 μg/ml); Minimum inhibitory concentration [14]: * (no inhibition at 64 μg/ml); Minimum inhibitory concentration [15]: * (no inhibition at 64 μg/ml); Minimum inhibitory concentration [16]: * (no inhibition at 64 μg/ml)
O=C(c1ccc(O)cc1)c1cc(O)cc(O)c1 [Compound 16g, 3,4′,5-trihydroxybenzophenone] | – | – | – | 20.5 µg/mL (≈ 89 µM) | 30.6 µg/mL (≈ 133 µM) | 22.3 µg/mL (≈ 96.9 µM) | 25 µg/mL (≈ 109 µM) | 24.5 µg/mL (≈ 106 µM) | 15 µg/mL (≈ 65.2 µM) | > 64 µg/mL | > 64 µg/mL | > 64 µg/mL | > 64 µg/mL | > 64 µg/mL | > 64 µg/mL | > 64 µg/mL | > 64 µg/mL | > 64 µg/mL | > 64 µg/mL | 64 µg/mL (≈ 278 µM) | –
COc1cc(O)cc(C(=O)c2ccc(O)cc2)c1 [Compound 16i, 3,4′-dihydroxy-5-methoxybenzophenone] | – | – | – | 21.7 µg/mL (≈ 88.8 µM) | 26.8 µg/mL (≈ 110 µM) | 26.4 µg/mL (≈ 108 µM) | 12.1 µg/mL (≈ 49.5 µM) | 31.6 µg/mL (≈ 129 µM) | 16.5 µg/mL (≈ 67.6 µM) | > 64 µg/mL | > 64 µg/mL | > 64 µg/mL | > 64 µg/mL | > 64 µg/mL | > 64 µg/mL | > 64 µg/mL | 32 µg/mL (≈ 131 µM) | > 64 µg/mL | > 64 µg/mL | 64 µg/mL (≈ 262 µM) | –
COc1ccc(C(=O)c2cc(O)cc(OC)c2)cc1 [Compound 16k, 4′,5-dimethoxy-3-hydroxybenzophenone] | – | – | – | 15 µg/mL (≈ 58.1 µM) | 14.2 µg/mL (≈ 55 µM) | 13.9 µg/mL (≈ 53.8 µM) | 10.3 µg/mL (≈ 39.9 µM) | 16.2 µg/mL (≈ 62.7 µM) | 12.6 µg/mL (≈ 48.8 µM) | > 64 µg/mL | 64 µg/mL (≈ 248 µM) | > 64 µg/mL | > 64 µg/mL | > 64 µg/mL | > 64 µg/mL | > 64 µg/mL | 16 to 32 µg/mL (≈ 61.9 to 124 µM) | > 64 µg/mL | > 64 µg/mL | 32 to 64 µg/mL (≈ 124 to 248 µM) | –
Sodium Resverastatin Phosphate [Compound 14n] | – | 0.73 µg/mL | – | – | – | – | – | – | – | – | – | – | – | – | – | – | – | – | – | – | Cytotoxicity against cancer cell lines, comparison in words [17]: essentially identical to 14c

From US7705188B2 (Arizona Board of Regents, a body corporate of the State of …, priority 2002, dated 2010)
